In ChEMBL document CHEMBL1201862, “PubChem BioAssay data set” (2004):
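Where inhibition never reached the appropriate level, the endpoint shown equals the highest concentration tested. Otherwise, values were interpolated linearly from a five-concentration, 48-hour dose response in 96-well plates. GI50 = concentration required for 50% inhibition of growth.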 The source made the active and inactive calls. Cut-off read from the data, not from the text of the source: active = GI50 up to about 1.1 µM and inactive = higher.

Experiments:
Experiment in all cases: NCI-60 cell line screen, 48 h
786-0 = tested on: 786-0
HCT-15 = tested on: HCT-15
SK-MEL-5 = tested on: SK-MEL-5
SK-OV-3 = tested on: SK-OV-3
TK-10 = tested on: TK-10
COLO 205 = tested on: COLO 205
ACHN = tested on: ACHN
Malme-3M = tested on: Malme-3M
SW-620 = tested on: SW-620
CAKI-1 = tested on: CAKI-1
OVCAR-3 = tested on: OVCAR-3
CCRF-CEM = tested on: CCRF-CEM
SNB-75 = tested on: SNB-75
K562 = tested on: K562
HOP-62 = tested on: HOP-62
SR = tested on: SR
OVCAR-8 = tested on: OVCAR-8
RPMI-8226 = tested on: RPMI-8226

SMILES | GI50 (786-0) | GI50 (HCT-15) [µM] | GI50 (SK-MEL-5) | GI50 (SK-OV-3) | GI50 (TK-10) | GI50 (COLO 205) | GI50 (ACHN) | GI50 (Malme-3M) | GI50 (SW-620) | GI50 (CAKI-1) | GI50 (OVCAR-3) | GI50 (CCRF-CEM) | GI50 (SNB-75) | GI50 (K562) | GI50 (HOP-62) | GI50 (SR) | GI50 (OVCAR-8) | GI50 (RPMI-8226)
CCOC(=O)c1c2ccc(/C=C/c3ccccn3)ccc-2c(C(=O)OCC)c1N | > 100 µM (inactive) | > 100 | > 100 µM (inactive) | > 100 µM (inactive) | > 100 µM (inactive) | > 100 µM (inactive) | 73.5 µM (inactive) | > 100 µM (inactive) | > 100 µM (inactive) | > 100 µM (inactive) | > 100 µM (inactive) | > 100 µM (inactive) | > 100 µM (inactive) | > 100 µM (inactive) | – | – | – | –
CC1=CC(=O)NCCN1C | > 100 µM (inactive) | > 100 | > 100 µM (inactive) | > 100 µM (inactive) | > 100 µM (inactive) | > 100 µM (inactive) | > 100 µM (inactive) | > 100 µM (inactive) | 24.2 µM (inactive) | > 100 µM (inactive) | > 100 µM (inactive) | 75.2 µM (inactive) | > 100 µM (inactive) | 73.5 µM (inactive) | > 100 µM (inactive) | > 100 µM (inactive) | > 100 µM (inactive) | –
CC(C)OC(=O)C1=C(O)c2ccccc2S(=O)(=O)N1 | > 100 µM (inactive) | > 100 | > 100 µM (inactive) | > 100 µM (inactive) | > 100 µM (inactive) | > 100 µM (inactive) | > 100 µM (inactive) | > 100 µM (inactive) | > 100 µM (inactive) | > 100 µM (inactive) | > 100 µM (inactive) | > 100 µM (inactive) | > 100 µM (inactive) | > 100 µM (inactive) | > 100 µM (inactive) | – | > 100 µM (inactive) | –
CCOc1ccccc1NC(=O)C(=O)CC(=O)C1=C(C)Nc2ccccc2S1 | > 100 µM (inactive) | > 100 | > 100 µM (inactive) | > 100 µM (inactive) | > 100 µM (inactive) | > 100 µM (inactive) | > 100 µM (inactive) | > 100 µM (inactive) | > 100 µM (inactive) | > 100 µM (inactive) | > 100 µM (inactive) | > 100 µM (inactive) | > 100 µM (inactive) | > 30.5 µM (inactive) | > 100 µM (inactive) | – | > 100 µM (inactive) | > 100 µM (inactive)
C/C(CC(=O)Nc1ccccc1[N+](=O)[O-])=N\NC(N)=O | > 100 µM (inactive) | – | > 100 µM (inactive) | > 100 µM (inactive) | > 100 µM (inactive) | > 100 µM (inactive) | > 100 µM (inactive) | > 100 µM (inactive) | > 100 µM (inactive) | – | > 100 µM (inactive) | > 100 µM (inactive) | > 100 µM (inactive) | > 100 µM (inactive) | > 100 µM (inactive) | – | > 100 µM (inactive) | > 100 µM (inactive)
COc1ccc(C(=O)O)c(Cc2cccc3ccccc23)c1 | > 100 µM (inactive) | > 100 | > 100 µM (inactive) | > 100 µM (inactive) | > 100 µM (inactive) | > 100 µM (inactive) | > 100 µM (inactive) | > 100 µM (inactive) | > 100 µM (inactive) | 73.5 µM (inactive) | 64.3 µM (inactive) | > 100 µM (inactive) | > 100 µM (inactive) | 81.8 µM (inactive) | > 100 µM (inactive) | > 100 µM (inactive) | > 100 µM (inactive) | –
O=C(CC(=O)c1cccc2ccccc12)C(=O)Nc1ccc(Cl)cc1 | > 100 µM (inactive) | > 100 | > 100 µM (inactive) | > 100 µM (inactive) | > 100 µM (inactive) | > 100 µM (inactive) | > 100 µM (inactive) | > 100 µM (inactive) | > 100 µM (inactive) | > 100 µM (inactive) | > 100 µM (inactive) | > 100 µM (inactive) | – | > 100 µM (inactive) | > 100 µM (inactive) | – | > 100 µM (inactive) | > 100 µM (inactive)
CC[P+](C)(C)c1ccccc1 | > 100 µM (inactive) | > 100 | > 100 µM (inactive) | > 100 µM (inactive) | > 100 µM (inactive) | > 100 µM (inactive) | > 100 µM (inactive) | > 100 µM (inactive) | > 100 µM (inactive) | > 100 µM (inactive) | > 100 µM (inactive) | > 100 µM (inactive) | > 100 µM (inactive) | > 100 µM (inactive) | > 100 µM (inactive) | – | > 100 µM (inactive) | > 100 µM (inactive)
CC1/C(=N\O)CC(c2ccccc2)N(C)C1c1ccccc1 (configuration not stated) | > 100 µM (inactive) | > 100 | > 100 µM (inactive) | > 100 µM (inactive) | > 100 µM (inactive) | > 100 µM (inactive) | > 100 µM (inactive) | 80.9 µM (inactive) | > 100 µM (inactive) | > 100 µM (inactive) | > 100 µM (inactive) | > 100 µM (inactive) | > 100 µM (inactive) | > 100 µM (inactive) | > 100 µM (inactive) | – | > 100 µM (inactive) | –
C#CCN(Cc1ccc2nc(-c3ccccc3)c(Cl)nc2c1)c1ccc(Cl)c(Cl)c1 | > 100 µM (inactive) | > 100 | > 100 µM (inactive) | > 100 µM (inactive) | > 100 µM (inactive) | > 100 µM (inactive) | > 100 µM (inactive) | > 100 µM (inactive) | > 100 µM (inactive) | > 100 µM (inactive) | 60 µM (inactive) | > 100 µM (inactive) | > 100 µM (inactive) | > 100 µM (inactive) | > 100 µM (inactive) | > 100 µM (inactive) | > 100 µM (inactive) | –
CC(C)(Oc1ccc2c(=O)cc(-c3ccc(Cl)cc3)oc2c1)C(=O)Nc1c(Cl)cccc1Cl | > 100 µM (inactive) | 24.2 | 96.6 µM (inactive) | > 100 µM (inactive) | > 100 µM (inactive) | – | – | > 100 µM (inactive) | > 100 µM (inactive) | > 100 µM (inactive) | > 100 µM (inactive) | > 100 µM (inactive) | – | 5.98 µM (inactive) | > 100 µM (inactive) | 79.3 µM (inactive) | > 100 µM (inactive) | > 100 µM (inactive)
CCC12CCCN(Cc3ccccc3)C1c1c(n(C)c3ccccc13)CC2 (configuration not stated) | > 253 µM (inactive) | 185 | 69.3 µM (inactive) | > 253 µM (inactive) | > 253 µM (inactive) | 164 µM (inactive) | 246 µM (inactive) | > 253 µM (inactive) | 178 µM (inactive) | > 253 µM (inactive) | 60.8 µM (inactive) | 168 µM (inactive) | – | 163 µM (inactive) | > 253 µM (inactive) | 108 µM (inactive) | > 253 µM (inactive) | 92.7 µM (inactive)
O=C(NC1C(=O)NNC1c1cccc([N+](=O)[O-])c1)c1ccccc1 (configuration not stated) | > 100 µM (inactive) | – | > 100 µM (inactive) | – | > 100 µM (inactive) | > 100 µM (inactive) | > 100 µM (inactive) | > 100 µM (inactive) | > 100 µM (inactive) | – | > 100 µM (inactive) | > 100 µM (inactive) | > 100 µM (inactive) | – | > 100 µM (inactive) | – | > 100 µM (inactive) | > 100 µM (inactive)
